Assay results as given in the NIST ThermoML archive (doi:10.1021/acs.jced.5b00934).

Conditions: Liquid, Vibrating tube method

CC(C)(C)O [2-methylpropan-2-ol]
Conditions | mass density [kg/m3]
303.15 K, 99 kPa | 775.3
303.15 K, 298 kPa | 775.5
303.15 K, 499 kPa | 775.7
303.15 K, 898 kPa | 776.1
303.15 K, 1002 kPa | 776.2
303.15 K, 2007 kPa | 777.1
303.15 K, 3007 kPa | 778.1
303.15 K, 4999 kPa | 780
303.15 K, 7003 kPa | 781.9
303.15 K, 8992 kPa | 783.7
303.15 K, 10005 kPa | 784.6
303.15 K, 11999 kPa | 786.3
308.15 K, 97 kPa | 770.2
308.15 K, 298 kPa | 770.4
308.15 K, 500 kPa | 770.6
308.15 K, 897 kPa | 771
308.15 K, 1002 kPa | 771.1
308.15 K, 2009 kPa | 772.1
308.15 K, 3000 kPa | 773.1
308.15 K, 5006 kPa | 775.1
308.15 K, 9006 kPa | 778.8
308.15 K, 10007 kPa | 779.7
308.15 K, 12005 kPa | 781.5
308.15 K, 15021 kPa | 784.1
308.15 K, 19998 kPa | 788.2
308.15 K, 22003 kPa | 789.8
308.15 K, 24990 kPa | 792.2
308.15 K, 28006 kPa | 794.5
308.15 K, 30005 kPa | 796
308.16 K, 7005 kPa | 777
308.16 K, 18006 kPa | 786.6
313.15 K, 99 kPa | 764.8
313.15 K, 298 kPa | 765
313.15 K, 502 kPa | 765.2
313.15 K, 904 kPa | 765.7
313.15 K, 1009 kPa | 765.8
313.15 K, 2016 kPa | 766.8
313.15 K, 3006 kPa | 767.8
313.15 K, 5010 kPa | 769.9
313.15 K, 7006 kPa | 771.8
313.15 K, 9005 kPa | 773.7
313.15 K, 10007 kPa | 774.7
313.15 K, 12005 kPa | 776.5
313.15 K, 15005 kPa | 779.2
313.15 K, 18003 kPa | 781.8
313.15 K, 20015 kPa | 783.5
313.15 K, 22002 kPa | 785.1
313.15 K, 25007 kPa | 787.5
313.15 K, 28002 kPa | 789.9
313.15 K, 30000 kPa | 791.4
313.15 K, 33001 kPa | 793.7
313.15 K, 33012 kPa | 793.6
313.15 K, 34006 kPa | 794.4
313.15 K, 35008 kPa | 795.1
313.15 K, 38012 kPa | 797.2
313.15 K, 40002 kPa | 798.6
313.15 K, 42007 kPa | 800
313.15 K, 44997 kPa | 802
313.16 K, 32001 kPa | 792.9
318.15 K, 100 kPa | 759.4
318.15 K, 298 kPa | 759.6
318.15 K, 498 kPa | 759.8
318.15 K, 901 kPa | 760.3
318.15 K, 1006 kPa | 760.4
318.15 K, 2001 kPa | 761.5
318.15 K, 3003 kPa | 762.6
318.15 K, 5002 kPa | 764.7
318.15 K, 7005 kPa | 766.7
318.15 K, 8999 kPa | 768.7
318.15 K, 10002 kPa | 769.7
318.15 K, 11999 kPa | 771.6
318.15 K, 15010 kPa | 774.4
318.15 K, 17998 kPa | 777
318.15 K, 20006 kPa | 778.8
318.15 K, 21999 kPa | 780.5
318.15 K, 24994 kPa | 782.9
318.15 K, 28005 kPa | 785.4
318.15 K, 30001 kPa | 787
318.15 K, 32001 kPa | 788.5
318.15 K, 32993 kPa | 789.3
318.15 K, 33002 kPa | 789.3
318.15 K, 34010 kPa | 790
318.15 K, 35001 kPa | 790.8
318.15 K, 38000 kPa | 793
318.15 K, 40010 kPa | 794.4
318.15 K, 42021 kPa | 795.9
318.15 K, 45005 kPa | 797.9
318.15 K, 47997 kPa | 799.9
318.15 K, 49998 kPa | 801.3
318.15 K, 52004 kPa | 802.6
318.15 K, 55002 kPa | 804.6
318.15 K, 57994 kPa | 806.5
318.15 K, 60002 kPa | 807.7
323.15 K, 99 kPa | 753.9
323.15 K, 298 kPa | 754.1
323.15 K, 502 kPa | 754.4
323.15 K, 901 kPa | 754.9
323.15 K, 1004 kPa | 755
323.15 K, 2003 kPa | 756.1
323.15 K, 3002 kPa | 757.2
323.15 K, 5004 kPa | 759.4
323.15 K, 7002 kPa | 761.5
323.15 K, 9002 kPa | 763.5
323.15 K, 10002 kPa | 764.5
323.15 K, 12000 kPa | 766.5
323.15 K, 14999 kPa | 769.3
323.15 K, 17998 kPa | 772.1
323.15 K, 20000 kPa | 773.9
323.15 K, 22000 kPa | 775.7
323.15 K, 25000 kPa | 778.2
323.15 K, 27995 kPa | 780.7
323.15 K, 30002 kPa | 782.4
323.15 K, 32000 kPa | 784
323.15 K, 33000 kPa | 784.7
323.15 K, 33001 kPa | 784.7
323.15 K, 34000 kPa | 785.5
323.15 K, 35004 kPa | 786.2
323.15 K, 38000 kPa | 788.5
323.15 K, 39998 kPa | 790
323.15 K, 41998 kPa | 791.5
323.15 K, 45000 kPa | 793.6
323.15 K, 47996 kPa | 795.7
323.15 K, 50000 kPa | 797.1
323.15 K, 51998 kPa | 798.4
323.15 K, 55006 kPa | 800.5
323.15 K, 57995 kPa | 802.4
323.15 K, 60000 kPa | 803.7
328.15 K, 101 kPa | 748.4
328.15 K, 298 kPa | 748.7
328.15 K, 499 kPa | 748.9
328.15 K, 898 kPa | 749.4
328.15 K, 1005 kPa | 749.5
328.15 K, 2001 kPa | 750.7
328.15 K, 3001 kPa | 751.9
328.15 K, 5001 kPa | 754.1
328.15 K, 7001 kPa | 756.3
328.15 K, 9004 kPa | 758.5
328.15 K, 9999 kPa | 759.5
328.15 K, 11999 kPa | 761.6
328.15 K, 15004 kPa | 764.5
328.15 K, 18006 kPa | 767.4
328.15 K, 19995 kPa | 769.2
328.15 K, 22000 kPa | 771
328.15 K, 24996 kPa | 773.6
328.15 K, 27998 kPa | 776.2
328.15 K, 30005 kPa | 777.9
328.15 K, 32005 kPa | 779.5
328.15 K, 33023 kPa | 780.3
328.15 K, 33038 kPa | 780.4
328.15 K, 34013 kPa | 781.1
328.15 K, 35004 kPa | 781.9
328.15 K, 38002 kPa | 784.3
328.15 K, 40024 kPa | 785.8
328.15 K, 41999 kPa | 787.2
328.15 K, 45002 kPa | 789.4
328.15 K, 47997 kPa | 791.6
328.15 K, 49992 kPa | 793
328.15 K, 55000 kPa | 796.4
328.15 K, 57995 kPa | 798.3
328.15 K, 60003 kPa | 799.6
328.16 K, 51996 kPa | 794.3
333.15 K, 103 kPa | 742.8
333.15 K, 307 kPa | 743.1
333.15 K, 502 kPa | 743.3
333.15 K, 915 kPa | 743.8
333.15 K, 1007 kPa | 744
333.15 K, 2013 kPa | 745.2
333.15 K, 3006 kPa | 746.4
333.15 K, 5002 kPa | 748.8
333.15 K, 7005 kPa | 751.1
333.15 K, 9001 kPa | 753.3
333.15 K, 9999 kPa | 754.3
333.15 K, 12003 kPa | 756.5
333.15 K, 15000 kPa | 759.6
333.15 K, 17995 kPa | 762.5
333.15 K, 19997 kPa | 764.4
333.15 K, 21996 kPa | 766.2
333.15 K, 24994 kPa | 768.9
333.15 K, 27993 kPa | 771.6
333.15 K, 30003 kPa | 773.3
333.15 K, 32004 kPa | 775
333.15 K, 32850 kPa | 775.7
333.15 K, 32871 kPa | 775.7
333.15 K, 34000 kPa | 776.6
333.15 K, 34990 kPa | 777.4
333.15 K, 38004 kPa | 779.8
333.15 K, 39997 kPa | 781.4
333.15 K, 41998 kPa | 782.9
333.15 K, 44909 kPa | 785.1
333.15 K, 48119 kPa | 787.4
